“Also recorded” adds a separate entry of the source. Ends that are not written are not given here.

6 molecules from patent US8518884B2, “Methods for treating atrial or ventricular arrhythmias by administering a G-protein alpha inhibitor” (Northwestern University, priority 2008, dated 2013) can be followed below.

Data set [1] has as its system M2R-stimulated Gi activation. The data set is described as follows: Cholinergic (CCh) modulation of Ca2+ transients in isolated canine left atrial myocytes. It is filed as cell-based. From the text:
(§1) Cardiac myocytes were isolated from the canine left atrium, loaded with fluo-4 (fluorescent Ca^2+ indicator), and electrically field-stimulated. […] The effects can be summarized quantitatively (SEE FIG. 12B).

The subject of data set [2] is βAR-stimulated Gs activation. Nature of the data set: β-adrenergic (ISO) modulation of Ca2+ transients in isolated canine left atrial myocytes. It is filed as cell-based. To be noted: 1 μM ISO (βAR saturating); within 20-30 seconds.
From the text: as §1

The test system of data set [3] is left atrium. Nature of the data set: Functional studies in pacing-induced CHF and control canine subjects: left atrial ERPs under autonomic manipulation. It is filed as in vivo. To be noted: both groups (CHF and control). Here is the method:
Canine subjects were divided into three groups. In group 1, CHF was induced by rapid ventricular pacing for 4 weeks (i.e. when the animals began to develop clinical heart failure. In group 2, pacing was performed for only 3 weeks. Group three were control canine subjects not subjected to rapid ventricular pacing. At the end of follow up period, high-density epicardial mapping was performed in the PVs, the PLA and the LAA. ERPs were obtained at multiple sites under the following conditions: a) baseline (BSL), b) left cervical vagal stimulation at 20 Hz (VS), c) beta-stimulation with isoproterenol (ISO), d) beta-blockade with propranolol (PROP) and e) beta-blockade+vagal stimulation (P+VS). VS caused significant mean ERP shortening in all three groups. […] PROP increased the VS effect on ERP in normal controls, but produced an attenuation of this effect in the CHF group (SEE FIG. 37). In this CHF model, after 4 weeks of pacing, an increased vagal effect on atrial refractoriness, an increased cumulative sympathetic effect, and a change in the sympatho-vagal interactions of the left atrium were observed. After 3 weeks of pacing, there is pronounced autonomic remodeling, with evidence of P as well S nerve upregulation in the PVs and left atrium. Both P and S upregulation are more pronounced in the PLA (and to a lesser extent in the PVs) than in the rest of the left atrium. While vagal responsiveness in the left atrium is unaltered at 3 weeks of pacing, it increases after 4 weeks of pacing. […] The autonomic remodeling becomes more pronounced with increasing duration of pacing. […] The increase in β1 binding is consistent with the increase in sympathetic innervation. […] The P upregulation noted in the left atrium in CHF is a compensatory response to S upregulation that occurs in response to CHF. […] However, since normal atria are more densely innervated with vagal fibers (than the ventricle) and also contain a significant amount of IKAch, the compensatory response is likely to be more vigorous in the atrium. The compensatory increase in vagal innervations, and resulting increase in IKAch, may contribute to increased AF substrate.

Data set [4] relates to posterior left atrium (PLA). Nature of the data set: Topical tropicaimide on the PLA: vagal stimulation (VS)-induced ERP shortening and AF inducibility. It is filed as in vivo, canine. Here is the method: P nerve fibers, and related muscarinic receptors, are preferentially located in the PLA and selective cholinergic blockade in the PLA can be successfully performed to alter vagal AF substrate. PLA, PVs and left atrial appendage (LAA) in canine subjects were immunostained for S nerves (dopamine beta-hydroxylase), P nerves (acetylcholine esterase), and M2 receptors. Epicardial electrophysiologic mapping was performed in 7 additional canine subjects. The PLA was the most richly innervated with nerve bundles containing P and S fibers (PV=0.9±1, PLA=3.2±2.5, LAA=0.17±0.3/cm^2; p<0.001); nerve bundles were located in fibrofatty tissue as well as in surrounding myocardium. P predominated over S fibers within bundles (P/S: PV=4.4, PLA=7.2, LAA=5.8). M2 distribution was also most pronounced in the PLA (M2 stained cells/cm^2: PLA=17.8±8.3, PV=14.3±7.3, LAA=14.5±8, p=0.012). A particularly high concentration of P fibers was found in the ligament of Marshall (in the PLA). The ligament of Marshall could be traced back to a major branch of the left cervical vagus nerve. The nerve in turn innervates the PVs and the rest of the PLA. The PLA surface is stained for acetylcholinesterase. […] A small nerve branch (N) originating in the LOM is seen to innervate the LSPV. […] Cholinergic nerves from the PLA fat pad (PFP) can be seen to innervate the LIPV. […] 1% tropicaimide was then applied topically to the PLA.
Using the canine model outlined below, 1% tropicaimide (a cholinergic blocker) was applied topically to the epicardial aspect of the PLA in canine subjects. Effective refractory periods were measured at multiple sites in the PLA a) at baseline, b) after left vagal stimulation, c) after tropicaimide application to the PLA and d) in the presence of vagal stimulation after tropicaimide application. […] The robust autonomic profile of the PLA and its role in AF (both in normal as well as diseased hearts), thereby making it an attractive target for autonomic manipulation by regional delivery of Gα C-terminal peptides. […]

Data set [5] deals with Gαo1. The data set is described as follows: Gαo1 minigene in the PLA: vagal and CCh induced ERP shortening. It is filed as in vivo, dog. To be noted: 10 mg minigene in PLA; day 3; compared to GαR dogs. Here is the method:
This Example describes the use of a Gαo1 inhibitor to treat arrhythmia is a subject. In one animal, the following was performed: • Day 1: Open-chest mapping was performed via a left lateral thoracotomy. 10 mg of minigene expressing Gαo1 peptide was then injected in the PLA, followed by electroporation. • Day 3: A left lateral thoracotomy was performed again. The left vagus nerve was isolated. ERPs were measured in the PLA, PV and LAA in the absence and presence of vagal stimulation. Data from the above animal was compared with other dogs that received other minigenes (i.e. Gαi2, Gαi2+Gαo1 and GαR (see Aistrup et al, Heart Rhythm 2011)

The subject of data set [6] is Gαi. Nature of the data set: cp-Gα peptide delivery to the PLA with electroporation/sonoporation: ERPs and AF inducibility with vagal stimulation. It is filed as in vivo, canine. Here is the method:
High-density epicardial mapping was performed in the PVs (2×2 electrodes), the PLA (7×3 electrodes) and the left atrial appendage (LAA) (7×3 electrodes) of canine subjects. Effective refractory periods (ERPs) were obtained at baseline and in response left cervical vagal stimulation (VS) (20 Hz). Cp-Gαi2 peptide (200-330 nM) was then applied topically to the epicardial aspect of the PLA in a canine subgroup. Cp-Gαi3 peptide (200-330 nM) was then applied topically to the epicardial aspect of the PLA of a second subgroup. Electroporation was performed after the application of peptide to enhance intracellular delivery of the peptide. ERPs were then re-measured in the presence and absence of VS.
In canine subjects, high-density epicardial mapping was performed in the PVs (2×2 electrodes), the PLA (7×3 electrodes) and the left atrial appendage (LAA) (7×3 electrodes). Effective refractory periods (ERPs) were obtained at baseline and in response left cervical vagal stimulation (VS) (20 Hz). FLAG-tcp-Gα peptides (200 nM-3 μM of cp-Gαi1/2 (N=8 canine subjects), cp-Gαi3 (N=4 canine subjects), or random-sequence cp-GαoR peptide (N=3 canine subjects) were injected into the PLA epicardium of the canine subjects followed by either sonoporation or electroporation. In a subgroup of the canine subjects, sonoporation or electroporation alone was performed without introduction of cp-Gαi peptide. ERPs were then re-measured in the presence and absence of VS. In a separate set of control animals, ERPs were measured before and after the administration of systemic autonomic blockade with propranolol (0.2 mg/kg)+atropine (0.04 mg/kg).

The subject of data set [7] is canine subject atrial cardiomyocytes. The data set is described as follows: Toxicity by rapid automated tetrazolium dye based assay (MTT). It is filed as cell-based. To be noted: 5 μM peptide.
[8] abbreviates: 200 nM-3 μM injected into PLA + sono/electroporation.
Setting [9] is: during VS, after peptide delivery into PLA.

For the molecule `C[N+](C)(C)CCOC(N)=O` [CCh, carbachol, reference compound], the “effect on cellular Ca2+ transients” value in data set [1] (10 μM CCh (M2R saturating), field-stimulated myocytes) is given as “nearly eliminated”.

Take `CC(C)NCC(O)c1ccc(O)c(O)c1` (stereo not shown) [ISO, isoproterenol]: the “effect on Ca2+ transients” value in data set [2] is “appreciably augmented”. Further, in data set [3], the “effect on mean ERP compared to PROP” value is listed as “significantly shortened”.

Take `CCN(Cc1ccncc1)C(=O)C(CO)c1ccccc1` (stereo not shown) [tropicaimide]: in data set [4] (1% tropicaimide topically to PLA, PLA, PV and LAA), the “VS-induced ERP shortening” value is listed as “significantly attenuated; also recorded: either entirely eliminated or at least significantly attenuated”. The “decrease in AF inducibility” value in data set [4] (1% tropicaimide topically to PLA, vagal stimulation) is reported as 92%. Further, the “AF induction with extrastimulus testing” value in data set [4] (after 1% tropicaimide to PLA, presence or absence of vagal stimulation) was “could not induced”.

In the case of IANNLRGCGLY [Gαo1 minigene], in data set [5], the “CCh induced ERP shortening” value is on record as “significant reduction” and the “vagal induced ERP shortening” value was “significant reduction”.

For the molecule “cp-Gαi2: chimeric peptide: cell-penetrating poly-arginine N-terminal sequence and C-terminal last 11 residues of Gαi (IKNNLKDCGLF; also: cell-penetrating poly-arginine N-terminal sequence, length not given here)”, the “attenuation of CCh effect on Ca2+ transients” value in data set [1] (0.1-3 μM peptide superfusion 10-20 min, CCh) is “significantly attenuate”. For the same molecule, in data set [6] (200-330 nM topical to PLA + electroporation, PLA, PV and LAA), the “VS induced ERP shortening” value was “significantly attenuated”.

“cp-Gαi peptide: cell-penetrating Gαi C-terminal peptide (cp-Gαi1/2 or cp-Gαi3), isoform not specified at the place (IKNNLKDCGLF; also: cell-penetrating sequence attached, not shown)”: in data set [7], the “enhancement of cell viability” value was around 8%. Moreover, in data set [6] (setting [8]), the “VS-induced ERP shortening in the LAA” value is “Elimination” and the “VS-induced ERP shortening in the PLA” value was “eliminated”. For the same molecule, the “ERP heterogeneity (coefficient of variation of all ERPs in PLA)” value in data set [6] (after peptide application) is listed as “no change”. Also, in data set [6] (after peptide delivery to PLA), the “AF inducibility in the presence of VS” value is on record as “significantly decreased”. Further, in data set [6] (compared to vagal stimulation at baseline), the “reduction in AF inducibility during VS” value is 69%. In addition, in data set [6] (setting [9]), the “AF episodes >5 seconds in duration induced” value was 10 episodes and the AF inducibility index worked out at 0.05. Also, the “atrial or ventricular arrhythmias induced by peptide injection” value in data set [6] (with or without sono/electroporation) is recorded as “No atrial or ventricular arrhythmias were induced”.
